Tests used:
Male Sprague-Dawley rats = test: radiant heat tail-flick test, baseline and NMDA-induced thermal hyperalgesia; format: in vivo, rat; conditions: for percentage change of TF latency (baseline tail-flick latency): without NMDA, compared to the control group
Excerpt: To examine whether PSD-95/SAP90 was required for thermal hyperalgesia triggered through NMDA receptor activation, we made an antisense oligonucletide (OND) corresponding to the PDZ domain nucleotides 241 to 258 (5′-[…]-3′; SEQ ID NO: 1) of rat PSD-95/SAP90 mRNA, as well as the sense OND and missense OND (5′-[…]-3′; SEQ ID NO: 2). All of the ONDs were compared to the Gene Bank database (GenBank accession number M96853) and found not to be complementary to any registered nucleotide sequences. The effects of antisense, sense and missense ONDs on baseline and NMDA-induced tail-flick latencies were assessed. […] To identify that NMDA-induced thermal hyperalgesia was produced specifically through NMDA receptor activation but not non-NMDA receptor activation, we observed the effects of a selective NMDA receptor antagonist, MK-801, and a selective non-NMDA receptor antagonist, DNQX, on NMDA-induced facilitation of the tail-flick reflex. […] In addition, motor weakness or dysfunction was not observed in locomotor tests (including placing reflex, grasping reflex and righting reflex) in any of the treated animals including the antisense groups (data not shown).
Animal preparation and behavioral testing. All experiments were carried out with the approval of the Animal Care Committee at the Johns Hopkins University and were consistent with the ethical guidelines of the National Institutes of Health and the International Association for the Study of Pain. Male Sprague-Dawley rats (250-300 g) were implanted with an intrathecal PE-10 catheter into the subarachnoid space at the rostral level of the spinal cord lumbar enlargement through an incision at the atlanto-occipital membrane according to the method as described.^25,27 One week or more later, the rats were injected intrathecally with saline or ONDs every 24 h for 4 days. On the fifth day, saline, NMDA, MK-801+NMDA or DNQX+NMDA was given intrathecally. Nociception was evaluated by the radiant heat tail-flick test. The doses and time point of maximal effect of NMDA used in the present study were determined based on a previous study.^24 The tail-flick apparatus (Model 33B Tail Flick Analgesy Meter, IITC Life Science, Woodland Hills, Calif., USA) generated a beam of radiant heat that was focused on the underside of the tail, 5 cm from the tip. A cut-off time latency of 13.5 s was used to avoid tissue damage to the tail. Nociception was assessed by the time required to induce tail-flick after applying radiant heat to the skin of the tail. The latency of reflexive removal of the tail from the heat was measured automatically to the nearest 0.01 s. Tail-flick latency was measured five times, and the basal latency was defined as the mean. Tail-flick data were expressed as percentage change calculated by the formula: (trial latency−baseline latency)/(baseline latency)×100%. Finally, PE-10 catheter position from each animal was confirmed when lumbar enlargement segments were removed for western blot analysis. PCR analysis of PSD-95/SAP90 in rat spinal cord. The cDNA sequences encoding portions of the PSD-95/SAP90 were amplified using the following synthetic OND primers: PSD1 (5′-[…]-3′; SEQ ID NO: 3) and PSD2 (5′-[…]-3′; SEQ ID NO: 4) for amplification of PSD-95/SAP90 codon positions 789-1525. RNA samples (1 μg) from rat spinal cord, brain and muscle were reverse transcribed to generate first-strand cDNA. The PCR reactions were performed for 25 cycles. Each cycle included 30 s at 94° C., 30 s at 55° C., and 30 s at 71° C. The PCR products were directly cloned into the TA cloning vector (Invitrogen Co., San Diego, Calif., USA) and verified by automatic DNA sequencing. Fusion protein construction and preparation. cDNA sequence encoding portion of PSD-95/SAP90 was amplified by PCR and subcloned in-frame into PGEX-2T (GIBCO, Rockville, Md., USA) via the BamHI and EcoRI restriction digest sites. […]

c-fos = c-fos immunohistochemistry in lumbar spinal cord after formalin; format: in vivo, rat
Protocol: All of the experiments were carried out with the approval of the Animal Care Committee at the Johns Hopkins University. Thirty-eight male Sprague-Dawley rats (250-300 g, Hilltop Laboratory Animals, Scottsdale, Pa., USA) were implanted with an intrathecal PE-10 catheter at the rostral level of the spinal cord lumbar enlargement according to the method described by Yaksh and Rudy. After 4 to 7 days of recovery, they were intrathecally injected with one of the following agents every 24 hours for 4 consecutive days: saline (10 μl, n=6), PSD-95 antisense oligodeoxynucleotide (ODN) (12.5 μg/10 μl, n=6; 25 μg/10 μl, n=6; 50 μg/10 μl, n=6), sense ODN (50 μg/10 μl, n=5) or missense ODN (50 μg/10 μl, n=9). On the fifth day, formalin (4%, 100 μl) was injected into one of the hindpaws. The number of flinches and shakes of the injected paw was assessed for 1 hour. The observational session was divided into phasic (0-10 min) and tonic (10-60 min) periods. Rats were sacrificed two hours after formalin injection and their lumbar spinal cords were harvested for c-fos immunohistochemistry.

rats = test: rat neuropathic pain model, unilateral L5 spinal nerve ligation, hind paw withdrawal; format: in vivo; conditions: 50 μg/10 μl intrathecal every 24 h for 4 days
Protocol: The effect of the deficiency of PSD-95/SAP90 on mechanical and thermal hyperalgesia in a rat neuropathic pain model was observed. The antisense oligonucleotide (OND) specifically against PSD-95/SAP90 was employed to reduce the expression of PSD-95/SAP90 in spinal cord. The rats were injected intrathecally with saline (10 μl), antisense OND (50 μg/10 μl) or sense OND (50 μg/10 μl) every 24 h for 4 days. The unilateral L5 spinal nerve was ligated. Hind paw withdrawal response to mechanical or heat stimuli was conducted 1 day prior to the surgery and at 3, 5, 7 and 9 days postoperatively. In the saline-treated group, mechanical and thermal hyperalgesia developed within 3 days and persisted for 9 days or longer. […] PSD-95/SAP90 is likely involved in the molecular mechanism of the production of hyperalgesia in neuropathic pain triggered via NMDA receptor activation.

[1] = 50 μg/10 μl intrathecal every 24 h for 4 days + NMDA

Substance	NMDA-produced facilitation of the tail-flick reflex after pretreatment (attenuated or not) (Male Sprague-Dawley rats; 50 μg/10 μl every 24 h for 4 days)	ΔTF latency (%) (Male Sprague-Dawley rats; [1])	percentage change of TF latency (baseline tail-flick latency) (Male Sprague-Dawley rats)	prevention of the NMDA-induced decrease of the tail-flick latency (Male Sprague-Dawley rats; 25 μg intrathecal)	NMDA-produced facilitation of the tail-flick reflex after pretreatment (Male Sprague-Dawley rats; 25 μg/10 μl and 50 μg/10 μl every 24 h for 4 days)	ΔTF latency (%) (Male Sprague-Dawley rats; 25 μg/10 μl intrathecal every 24 h for 4 days + NMDA)	prevention of the NMDA-induced decrease of the tail-flick latency (Male Sprague-Dawley rats; 50 μg intrathecal)	tail flick latency in response to NMDA stimulation after recovery (Male Sprague-Dawley rats; recovery for an additional four days after treatment)	decrease of the number of Fos-like immunoreactive neurons per section (c-fos; 50 μg intrathecal)	changes in the number of Fos-like immunoreactive neurons vs saline-treated group (c-fos; 12.5 and 25 μg)	onset of the mechanical hyperalgesia (rats)	onset of the thermal hyperalgesia (rats)
5′-AAGCCCTTGTTCCCATTT-3′ (DNA, backbone and methylation of C not given here; listed as Rattus rattus) [MS, missense OND control, reference compound]	not	−20.96%	−2.05±1.57%									
5′-TGTGATCTCCTCATACTC-3′ (DNA, backbone and methylation of C not given here; listed as Rattus rattus) [antisense oligonucletide corresponding to the PDZ domain nucleotides 241 to 258 of rat PSD-95/SAP90 mRNA]		−4.72%	0.44±1.95%	55%	attenuated	−11.65%	82%	returned to normal	48%	failed to produce significant changes	significant delay	significant delay

— US8148347B2, “Inhibition of interaction of PSD93 and PSDS95 with nNOS and NMDA receptors” (The Johns Hopkins University, priority 2000, dated 2012)
